According to ChEMBL document CHEMBL1201862, “PubChem BioAssay data set” (2004):
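Results reflect a 48-hour exposure of cells in 96-well plates to compound at five concentrations. At the GI50, growth is halved.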 Activity calls are given as the source filed them. Cut-off read from the data, not from the text of the source: active = GI50 up to about 1.1 µM and inactive = higher.

What was measured:
Test in all cases: NCI anticancer screen, dose series, 48 h
786-0 = tested on: 786-0
UO-31 = tested on: UO-31
SF-295 = tested on: SF-295
XF498 = tested on: XF498
U-251 = tested on: U-251
EKVX = tested on: EKVX
RXF 393 = tested on: RXF 393
M19-MEL = tested on: M19-MEL
CCRF-CEM = tested on: CCRF-CEM
HT-29 = tested on: HT-29
HCT-116 = tested on: HCT-116
COLO 205 = tested on: COLO 205
KM12 = tested on: KM12
K562 = tested on: K562
DMS-273 = tested on: DMS-273
HOP-18 = tested on: HOP-18
IGROV-1 = tested on: IGROV-1
MOLT-4 = tested on: MOLT-4
TK-10 = tested on: TK-10
SK-OV-3 = tested on: SK-OV-3
Malme-3M = tested on: Malme-3M
NCI-H522 = tested on: NCI-H522
SNB-19 = tested on: SNB-19
OVCAR-3 = tested on: OVCAR-3
SNB-78 = tested on: SNB-78
OVCAR-8 = tested on: OVCAR-8
M14 = tested on: M14
SK-MEL-2 = tested on: SK-MEL-2
A498 = tested on: A498
DLD-1 = tested on: DLD-1
HOP-92 = tested on: HOP-92
NCI-H226 = tested on: NCI-H226
SK-MEL-28 = tested on: SK-MEL-28
NCI-H23 = tested on: NCI-H23
KM-20L2 = tested on: KM-20L2
UACC-62 = tested on: UACC-62
HL-60 = tested on: HL-60
OVCAR-5 = tested on: OVCAR-5
UACC-257 = tested on: UACC-257
SK-MEL-5 = tested on: SK-MEL-5
RXF 631 = tested on: RXF 631
NCI-H460 = tested on: NCI-H460
OVCAR-4 = tested on: OVCAR-4
SF-268 = tested on: SF-268
HCT-15 = tested on: HCT-15
RPMI-8226 = tested on: RPMI-8226
DMS-114 = tested on: DMS-114
LOX IMVI = tested on: LOX IMVI
ACHN = tested on: ACHN
SF-539 = tested on: SF-539
SN12C = tested on: SN12C
SW-620 = tested on: SW-620
CAKI-1 = tested on: CAKI-1
HOP-62 = tested on: HOP-62
A549 = tested on: A549
LXFL 529 = tested on: LXFL 529
HCC 2998 = tested on: HCC 2998
SNB-75 = tested on: SNB-75
BT-549 = tested on: BT-549
MDA-MB-435 = tested on: MDA-MB-435
DU-145 = tested on: DU-145
T47D = tested on: T47D
PC-3 = tested on: PC-3
Hs-578T = tested on: Hs-578T
MCF7 = tested on: MCF7
MDA-N = tested on: MDA-N
SR = tested on: SR

Measured: GI50

CC(C)(C)OC(=O)NC(Cc1ccccc1)C(=S)N1CCCC1 (centres undefined)
75.5 µM: HCT-15
inactive: 786-0 > 100 µM | UO-31 40.4 µM | SF-295 95.3 µM | XF498 > 100 µM | U-251 > 100 µM | EKVX 52.6 µM | RXF 393 58.9 µM | M19-MEL > 100 µM | CCRF-CEM 69.2 µM | HT-29 85.7 µM | HCT-116 > 100 µM | COLO 205 > 100 µM | KM12 > 100 µM | K562 78.3 µM | DMS-273 > 79.3 µM | HOP-18 > 100 µM | IGROV-1 > 100 µM | MOLT-4 42.6 µM | TK-10 > 100 µM | SK-OV-3 > 100 µM | Malme-3M > 100 µM | NCI-H522 25 µM | SNB-19 > 100 µM | OVCAR-3 > 100 µM | SNB-78 > 100 µM | OVCAR-8 > 100 µM | M14 > 100 µM | SK-MEL-2 > 100 µM | A498 > 100 µM | DLD-1 62.4 µM | HOP-92 31.7 µM | NCI-H226 > 100 µM | SK-MEL-28 > 100 µM | NCI-H23 48.8 µM | KM-20L2 > 100 µM | UACC-62 > 80.4 µM | HL-60 89.5 µM | OVCAR-5 > 100 µM | UACC-257 89.1 µM | SK-MEL-5 57 µM | RXF 631 > 100 µM | NCI-H460 > 93.8 µM | OVCAR-4 86.3 µM | SF-268 > 100 µM | RPMI-8226 31.1 µM | DMS-114 65.5 µM | LOX IMVI > 87.9 µM | ACHN > 100 µM | SF-539 > 100 µM | SN12C > 100 µM | SW-620 > 100 µM | CAKI-1 > 50.9 µM | HOP-62 25.8 µM | A549 > 100 µM | LXFL 529 > 90.4 µM | HCC 2998 > 100 µM | SNB-75 55.5 µM

COc1ccc(/C=C2\C(=O)N(NC(C)=O)c3ccccc32)cc1
67.9 µM: HCT-15
inactive: 786-0 > 100 µM | UO-31 37.4 µM | SF-295 > 100 µM | XF498 > 100 µM | U-251 > 100 µM | EKVX 48.8 µM | M19-MEL > 100 µM | CCRF-CEM 49.7 µM | HT-29 42 µM | HCT-116 63.4 µM | COLO 205 > 100 µM | KM12 87.9 µM | K562 28.6 µM | DMS-273 99.1 µM | HOP-18 > 100 µM | IGROV-1 > 100 µM | MOLT-4 40.9 µM | TK-10 46.5 µM | SK-OV-3 > 100 µM | Malme-3M > 100 µM | SNB-19 > 100 µM | OVCAR-3 56.4 µM | SNB-78 > 100 µM | OVCAR-8 48.1 µM | M14 > 100 µM | SK-MEL-2 > 100 µM | A498 > 100 µM | DLD-1 68.4 µM | HOP-92 > 100 µM | NCI-H226 > 100 µM | SK-MEL-28 > 100 µM | NCI-H23 > 100 µM | KM-20L2 > 100 µM | UACC-62 > 100 µM | OVCAR-5 > 100 µM | UACC-257 > 100 µM | SK-MEL-5 46.2 µM | RXF 631 > 100 µM | NCI-H460 > 100 µM | OVCAR-4 > 100 µM | SF-268 80.4 µM | RPMI-8226 37.4 µM | DMS-114 77.3 µM | LOX IMVI > 100 µM | ACHN > 100 µM | SF-539 > 100 µM | SN12C > 100 µM | SW-620 95.9 µM | CAKI-1 43.5 µM | HOP-62 97.3 µM | A549 58.9 µM | HCC 2998 71.6 µM | SNB-75 33.5 µM

CC[N+]1(C)CCC(O)(c2ccc(OC)cc2)C(C(=O)c2ccc(OC)cc2)C1 (centres undefined)
active: Hs-578T 36.8 nM
10.2 µM: HCT-15
inactive: BT-549 16 µM | 786-0 3.18 µM | UO-31 18.7 µM | SF-295 20 µM | XF498 11 µM | U-251 1.54 µM | EKVX 19.8 µM | RXF 393 7 µM | M19-MEL 20.5 µM | CCRF-CEM 2.02 µM | HT-29 7.03 µM | HCT-116 9.27 µM | COLO 205 3.15 µM | KM12 16 µM | K562 2.25 µM | DMS-273 19 µM | HOP-18 14.7 µM | IGROV-1 20.5 µM | MOLT-4 2.23 µM | TK-10 4.51 µM | MDA-MB-435 16.8 µM | DU-145 15.9 µM | SK-OV-3 18 µM | Malme-3M 6.44 µM | NCI-H522 1.98 µM | T47D 13.4 µM | SNB-19 32.1 µM | OVCAR-3 12.4 µM | SNB-78 14.8 µM | OVCAR-8 21 µM | PC-3 17.7 µM | M14 8.69 µM | SK-MEL-2 18.8 µM | A498 17.6 µM | DLD-1 2.88 µM | HOP-92 2.63 µM | NCI-H226 18.7 µM | SK-MEL-28 15.1 µM | NCI-H23 17.9 µM | KM-20L2 21.9 µM | UACC-62 18.8 µM | HL-60 2.52 µM | OVCAR-5 18.7 µM | UACC-257 17.5 µM | SK-MEL-5 15.4 µM | RXF 631 18.5 µM | NCI-H460 21.8 µM | OVCAR-4 22 µM | SF-268 21.2 µM | MCF7 4.4 µM | MDA-N 16.6 µM | RPMI-8226 1.91 µM | DMS-114 19.9 µM | LOX IMVI 16.3 µM | ACHN 13.1 µM | SF-539 17.4 µM | SN12C 18.2 µM | SW-620 2.08 µM | CAKI-1 5.9 µM | HOP-62 18.9 µM | A549 19.9 µM | LXFL 529 3.49 µM | HCC 2998 19.6 µM | SR 2.34 µM | SNB-75 13.7 µM

CC1=NN(c2ccccc2)C(=O)C1/N=N/c1ccc(Br)c(C)c1 (centres undefined)
inactive: 786-0 > 100 µM | SF-295 > 100 µM | XF498 > 100 µM | U-251 > 100 µM | EKVX > 100 µM | RXF 393 > 100 µM | M19-MEL > 100 µM | CCRF-CEM 55.7 µM | HT-29 > 100 µM | HCT-116 > 100 µM | COLO 205 > 100 µM | KM12 > 100 µM | K562 > 100 µM | DMS-273 > 100 µM | IGROV-1 > 100 µM | MOLT-4 71.3 µM | TK-10 > 100 µM | SK-OV-3 > 100 µM | Malme-3M > 100 µM | SNB-19 > 100 µM | OVCAR-3 > 100 µM | SNB-78 > 100 µM | OVCAR-8 > 100 µM | M14 > 100 µM | SK-MEL-2 > 100 µM | A498 > 100 µM | DLD-1 > 100 µM | HOP-92 > 100 µM | NCI-H226 > 100 µM | SK-MEL-28 > 100 µM | NCI-H23 > 100 µM | KM-20L2 > 100 µM | UACC-62 > 100 µM | HL-60 > 100 µM | OVCAR-5 > 100 µM | UACC-257 > 100 µM | SK-MEL-5 > 100 µM | RXF 631 > 100 µM | NCI-H460 > 100 µM | OVCAR-4 > 100 µM | SF-268 > 10 µM | RPMI-8226 > 100 µM | DMS-114 > 100 µM | ACHN > 100 µM | SF-539 > 100 µM | SN12C > 100 µM | SW-620 > 100 µM | CAKI-1 > 100 µM | HOP-62 > 100 µM | A549 > 100 µM | LXFL 529 > 100 µM | HCC 2998 > 100 µM | SNB-75 > 100 µM
active: HOP-18 0.0562 µM
> 100 µM: HCT-15
